Here are results for 18 compounds from US20220324865A1 (Bayer Aktiengesellschaft, priority 2018, published 2022).

For orientation: IC50 means the point on the concentration scale where inhibition reaches its midpoint.

This assay concerns the target T1, human EP3 receptor (Homo sapiens, UniProt P43115).
T1 construct: expressed in transfected cells; host or cells: CHO K1 (Chinese Hamster Ovary), stably co-transfected with Galpha16 and mitochondrial clytin
T1 sequence (P43115 1-390): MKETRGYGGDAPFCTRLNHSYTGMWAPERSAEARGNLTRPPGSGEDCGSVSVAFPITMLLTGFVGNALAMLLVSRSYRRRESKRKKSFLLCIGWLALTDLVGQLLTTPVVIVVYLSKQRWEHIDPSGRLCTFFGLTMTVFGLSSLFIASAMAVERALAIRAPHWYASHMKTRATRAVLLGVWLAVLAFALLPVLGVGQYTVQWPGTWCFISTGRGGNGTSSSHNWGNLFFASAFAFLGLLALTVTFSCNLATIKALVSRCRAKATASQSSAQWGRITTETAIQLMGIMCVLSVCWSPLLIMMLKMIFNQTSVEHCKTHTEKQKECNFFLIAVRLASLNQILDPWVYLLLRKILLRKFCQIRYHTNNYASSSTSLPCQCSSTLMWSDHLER
Put plainly: Cellular in vitro assay for determining EP3 receptor activity (human EP3 cell line, sulprostone-stimulated calcium luminescence). The class given is cell-based. The following applies: CHO cells expressing human EP3 and mitochondrial Clytin; antagonist mode, sulprostone at EC50; read-out: EP3 CHO mtCLY ANTAG IC50. Put shortly: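 Antagonist activity was measured as inhibition of the luminescent calcium signal elicited by EC50 sulprostone, following 10 min compound pretreatment. The cell line was recombinant CHO K1 co-expressing human EP3, Gα16 and the photoprotein Clytin, reconstituted with coelenterazine.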
Take `CC(C)(O)[C@@H](NC(=O)c1nn2cc(-c3ccc(Cl)c(Cl)c3)[nH]c(=O)c2c1C1CC(F)(F)C1)c1ccc(F)cc1` [6-552]: the IC50 was 2.55 nM.
Consider `CN1CC(NC(=O)c2nn3cc(-c4ccc5ccccc5c4)[nH]c(=O)c3c2C2CC2)(c2ccc(F)cc2)C1` [Example 1-82, 3-Cyclopropyl-N-[3-(4-fluorophenyl)-1-methylazetidin-3-yl]-6-(naphthalen-2-yl)-4-oxo-4,5-dihydropyrazolo[1,5-a]pyrazine-2-carboxamide], for which the half-inhibitory concentration (IC50) was 4.6 nM.
Then `CC[C@@H](NC(=O)c1nn2cc(-c3ccc4ccccc4c3)[nH]c(=O)c2c1C#N)c1ccccc1` [Example 3-61, 3-Cyano-6-(naphthalen-2-yl)-4-oxo-N-[(1R)-1-phenylpropyl]-4,5-dihydropyrazolo[1,5-a]pyrazine-2-carboxamide], with 2 nM; and `COc1ccc([C@@H](NC(=O)c2nn3cc(-c4ccc(C)c(F)c4)[nH]c(=O)c3c2C2CC2)C(F)(F)CO)cn1` [6-400], with 3.65 nM.
As to `COc1ccc(C(C)NC(=O)c2nn3cc(-c4cnc5cccc(C)c5c4)[nH]c(=O)c3c2C(C)C)cn1` (stereo not drawn) [Example 4-6, 3-Isopropyl-N-[1-(6-methoxy-3-pyridyl)ethyl]-6-(5-methyl-3-quinolyl)-4-oxo-5H-pyrazolo[1,5-a]pyrazine-2-carboxamide], the 50% inhibitory concentration (IC50) amounted to 1.16 nM.
The result for `C[C@@H](NC(=O)c1nn2cc(-c3ccc4ccccc4c3)[nH]c(=O)c2c1C#N)c1ccc(F)cc1` [6-68] reads 2.35 nM.
In the case of `COCc1c(C(=O)NC2(c3ccc(F)cc3)CN(C)C2)nn2cc(-c3ccc4c(c3)OCCO4)[nH]c(=O)c12` [6-628], the concentration for half-maximal inhibition (IC50) stood at 6.65 nM.
Regarding `NC(=O)[C@H](NC(=O)c1cc2c(=O)[nH]c(-c3ccc4ccccc4c3)cn2n1)c1ccccc1` [6-84], the half-inhibitory concentration (IC50) stood at 5.4 nM.
Turning to `Cc1cc(-c2cn3nc(C(=O)NC4(c5ccc(F)cc5)CN(CC(F)(F)F)C4)c(C4CC4)c3c(=O)[nH]2)ccc1Cl` [6-344], the IC50 was 0.99 nM.
Take `CC(C)(O)[C@@H](NC(=O)c1nn2cc(-c3ccc4ccccc4c3)[nH]c(=O)c2c1C(F)(F)F)c1ccccc1` [Example 1-18, N-[(1S)-2-Hydroxy-2-methyl-1-phenylpropyl]-6-(naphthalen-2-yl)-4-oxo-3-(trifluoromethyl)-4,5-dihydropyrazolo[1,5-a]pyrazine-2-carboxamide]: the IC50 was 1.04 nM.
On to `Cc1cc(-c2cn3nc(C(=O)N[C@H](CCO)c4ccc(F)cc4)c(C4CC4)c3c(=O)[nH]2)ccc1Cl` [6-343], for which the IC50 came to 0.28 nM.
Turning to `Cc1cccc2ncc(-c3cn4nc(C(=O)NCc5cccc(CN6CCCC6)c5)c(C(C)C)c4c(=O)[nH]3)cc12` [Example 4-81, 6-(5-Methylquinolin-3-yl)-4-oxo-3-(propan-2-yl)-N-({3-[(pyrrolidin-1-yl)methyl]phenyl}methyl)-4,5-dihydropyrazolo[1,5-a]pyrazine-2-carboxamide], the IC50 worked out at 4.45 nM.
The result for `Cc1cc(-c2cn3nc(C(=O)N[C@@H](c4ccc(F)cc4)C(F)(F)CO)c(C(F)(F)C(F)(F)F)c3c(=O)[nH]2)ccc1Cl` [6-477] reads 0.44 nM; that for `Cc1cccc2ncc(-c3cn4nc(C(=O)NC(C)c5cccnc5)c(C(C)C)c4c(=O)[nH]3)cc12` (stereo not drawn) [Example 4-70, 3-Isopropyl-6-(5-methyl-3-quinolyl)-4-oxo-N-[1-(3-pyridyl)ethyl]-5H-pyrazolo[1,5-a]pyrazine-2-carboxamide], 2.4 nM; that for `Cc1ccc(-c2cn3nc(C(=O)NCCN(CC(F)F)C4CC4)c(C(F)(F)F)c3c(=O)[nH]2)cc1Cl` [6-152], 4.75 nM.
For `O=C(N[C@@H]1c2ccccc2C[C@@H]1O)c1cc2c(=O)[nH]c(-c3ccc4ccccc4c3)cn2n1` [6-74], the IC50 amounted to 5.77 nM.
For the compound `Cc1ccc(-c2cn3nc(C(=O)NC4CCN(CC(F)F)C4)c(C4CC4)c3c(=O)[nH]2)cc1C` (single isomer, unassigned) [6-454], the IC50 came to 4.75 nM.
As for `CC(C)(O)[C@@H](NC(=O)c1nn2cc(-c3ccc(Cl)c(F)c3)[nH]c(=O)c2c1C(F)(F)C(F)(F)F)c1ccc(F)cc1` [6-493], the IC50 stood at 2.98 nM.
